Values quoted from earlier work in patent US20230136789A1, “POLYMER IMPLANTS” (Foundry Therapeutics, Inc., priority 2020, published 2023).

CCCCN1CCCCC1C(=O)Nc1c(C)cccc1C (stereo not shown) [bupivacaine]
pKa: about 8.0
